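Where inhibition never reached the appropriate level, the endpoint shown equals the highest concentration tested. Otherwise, values were interpolated linearly from a five-concentration, 48-hour dose response in 96-well plates. At the TGI there is no net growth.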
Key:
Experiment in all cases: growth of human tumour cells (NCI), 48 h
NCI-H226 lung = test system: NCI-H226 lung
IGROV1 ovarian = test system: IGROV1 ovarian
HT29 colon = test system: HT29 colon
HCT-116 colon = test system: HCT-116 colon
SNB-19 CNS = test system: SNB-19 CNS
OVCAR-4 ovarian = test system: OVCAR-4 ovarian
SK-OV-3 ovarian = test system: SK-OV-3 ovarian
RPMI-8226 leukemia = test system: RPMI-8226 leukemia
SK-MEL-5 melanoma = test system: SK-MEL-5 melanoma
HOP-62 NSCLC = test system: HOP-62 NSCLC
SN12C renal = test system: SN12C renal
NCI-H23 lung = test system: NCI-H23 lung
DU-145 prostate = test system: DU-145 prostate
SNB-75 CNS = test system: SNB-75 CNS
MDA-MB-435 = test system: MDA-MB-435
A549 NSCLC = test system: A549 NSCLC
RXF 393 renal = test system: RXF 393 renal
SK-MEL-2 melanoma = test system: SK-MEL-2 melanoma
LOX IMVI melanoma = test system: LOX IMVI melanoma
SR leukemia = test system: SR leukemia
SF-295 CNS = test system: SF-295 CNS
TK-10 renal = test system: TK-10 renal
ACHN renal = test system: ACHN renal
OVCAR-8 ovarian = test system: OVCAR-8 ovarian
T-47D breast = test system: T-47D breast
MDA-N = test system: MDA-N
EKVX NSCLC = test system: EKVX NSCLC
BT-549 breast = test system: BT-549 breast
KM12 colon = test system: KM12 colon
PC-3 prostate = test system: PC-3 prostate
U251 CNS = test system: U251 CNS
HOP-92 NSCLC = test system: HOP-92 NSCLC
SK-MEL-28 melanoma = test system: SK-MEL-28 melanoma
OVCAR-5 ovarian = test system: OVCAR-5 ovarian
HCT-15 colon = test system: HCT-15 colon
MDA-MB-231 breast = test system: MDA-MB-231 breast
MOLT-4 leukemia = test system: MOLT-4 leukemia
SF-268 CNS = test system: SF-268 CNS
UO-31 renal = test system: UO-31 renal
COLO 205 colon = test system: COLO 205 colon
MALME-3M melanoma = test system: MALME-3M melanoma
MCF7 breast = test system: MCF7 breast
UACC-257 melanoma = test system: UACC-257 melanoma
CAKI-1 renal = test system: CAKI-1 renal
UACC-62 melanoma = test system: UACC-62 melanoma
NCI/ADR-RES ovarian = test system: NCI/ADR-RES ovarian
M14 melanoma = test system: M14 melanoma
786-0 renal = test system: 786-0 renal
K-562 leukemia = test system: K-562 leukemia
A498 renal = test system: A498 renal
NCI-H522 lung = test system: NCI-H522 lung
SW-620 colon = test system: SW-620 colon
CCRF-CEM leukemia = test system: CCRF-CEM leukemia
HL-60(TB) leukemia = test system: HL-60(TB) leukemia
SF-539 CNS = test system: SF-539 CNS
OVCAR-3 ovarian = test system: OVCAR-3 ovarian
NCI-H460 lung = test system: NCI-H460 lung
HCC-2998 colon = test system: HCC-2998 colon
HS 578T breast = test system: HS 578T breast

Measured: TGI

COc1cc(C2SCCCCCCCCCCSC(c3ccc(O)c(OC)c3)SCCCCCCCCCCS2)ccc1O (stereo unspecified)
> 100 µM: NCI-H226 lung | IGROV1 ovarian | HT29 colon | HCT-116 colon | SNB-19 CNS | OVCAR-4 ovarian | SK-OV-3 ovarian | RPMI-8226 leukemia | SK-MEL-5 melanoma | HOP-62 NSCLC | SN12C renal | NCI-H23 lung | DU-145 prostate | SNB-75 CNS | MDA-MB-435 | A549 NSCLC | RXF 393 renal | SK-MEL-2 melanoma | LOX IMVI melanoma | SR leukemia | SF-295 CNS | TK-10 renal | ACHN renal | OVCAR-8 ovarian | T-47D breast | MDA-N | EKVX NSCLC | BT-549 breast | KM12 colon | PC-3 prostate | U251 CNS | HOP-92 NSCLC | SK-MEL-28 melanoma | OVCAR-5 ovarian | HCT-15 colon | MDA-MB-231 breast | MOLT-4 leukemia | SF-268 CNS | UO-31 renal | COLO 205 colon | MALME-3M melanoma | MCF7 breast | UACC-257 melanoma | CAKI-1 renal | UACC-62 melanoma | NCI/ADR-RES ovarian | M14 melanoma | 786-0 renal | K-562 leukemia | A498 renal | NCI-H522 lung | SW-620 colon

CCOC(=O)c1[nH]c(-c2[nH]c(-c3[nH]c(-c4[nH]c(C(=O)OCC)c(C)c4C(=O)OCC)c(C(=O)OCC)c3C)c(C)c2C(=O)OCC)c(C(=O)OCC)c1C
> 100 µM: NCI-H226 lung | IGROV1 ovarian | HT29 colon | HCT-116 colon | SNB-19 CNS | OVCAR-4 ovarian | SK-OV-3 ovarian | RPMI-8226 leukemia | SK-MEL-5 melanoma | HOP-62 NSCLC | SN12C renal | NCI-H23 lung | DU-145 prostate | MDA-MB-435 | A549 NSCLC | RXF 393 renal | SK-MEL-2 melanoma | LOX IMVI melanoma | SF-295 CNS | TK-10 renal | ACHN renal | OVCAR-8 ovarian | T-47D breast | MDA-N | EKVX NSCLC | CCRF-CEM leukemia | HL-60(TB) leukemia | SF-539 CNS | KM12 colon | PC-3 prostate | U251 CNS | SK-MEL-28 melanoma | OVCAR-5 ovarian | HCT-15 colon | MDA-MB-231 breast | MOLT-4 leukemia | OVCAR-3 ovarian | SF-268 CNS | COLO 205 colon | NCI-H460 lung | MALME-3M melanoma | MCF7 breast | UACC-257 melanoma | CAKI-1 renal | UACC-62 melanoma | NCI/ADR-RES ovarian | M14 melanoma | 786-0 renal | HCC-2998 colon | K-562 leukemia | A498 renal | NCI-H522 lung | SW-620 colon | HS 578T breast

From PubChem BioAssay (NCI)
